What was measured:
solid tumors = details: single agent, Phase I trial; cited from earlier work
AML with FLT3 mutation = details: added to cytarabine and daunorubicin induction and cytarabine consolidation; cited from earlier work
MV-4-11 = experiment: Caspase-Glo 3/7 caspase3.7 activity, dose matrix, MV-4-11; assay type: cell-based; details: single agent, MV-4-11 (FLT3-ITD), 6 hours treatment, highest dose 3 uM
Method: (§1) Both compounds were dissolved in 100% DMSO (Sigma, Catalog number D2650) at concentrations of 10 mM and stored at −20° C. until use.
(§2) The cell line Molm13 used in this study was purchased from Leibniz-Institut DSMZ (ACC 554) and MV-4-11 from American Type Cell Collection (ATCC® CRL-9591). The cell lines were cultured at 37° C. in a 5% CO2 incubator, Molm13 in RPMI (Lonza, 12-702F) and MV-4-11 in IMDM (Hyclone, SH30228.01) media complemented with 10% fetal bovine serum (Seradigm, 1500-500). The cells were passaged twice a week and the medium was changed every 2 to 3 days.
(§3) Caspase3.7 activity was measured by the Caspase-Glo® 3/7 kit from Promega (G8092), 9000 cells/well were dispensed into clear-bottom 384-well black plates (Greiner, #781091) in triplicates with 30 μl/well growth media. […] Then 30 ul/well of the Caspase-Glo® 3/7 reagents was added to each well at the end and luminescence was recorded on an Envision plate reader (Perkin Elmer). Measured Luminescence is proportional to the amount of caspase activity present. […]
(§4) The Compound A and Compound B “dose matrix”, consisted of the following: both compounds were subjected to a 11 dose 1:3 serial dilution with the highest dose of 3 uM and down to no-compound control. […] The percent caspase3.7 activity was calculated using the following calculation: (I-control/compound treated)×100. […]

MV-4-11 cells = experiment: Western blot of FLT3-mediated signaling and Bcl-2 family proteins; assay type: cell-based; details: 6 hours
Method: B. Western blot analysis of FLT3-mediated signaling pathways and expression of Bcl-2 family proteins in MV-4-11 cells treated for 6 hours with Midostaurin. S63845 alone or in combination. De-phosphorylation of FLT3-ITD lead to inactivation of STAT5 and MAPK and was accompanied by significant downregulation of MAPK-mediated phosphorylation of Mcl-1 at Thr163, site required for Mcl-1 stability. Consequently, Midostaurin reduced level of Mcl-1.
Cells (3×10^6/well) were seeded in 6-well plates in 5 mL of complete RPMI medium and exposed to Midostaurin and S63845 given alone or in combination. Control cells received DMSO. Cells were incubated for 6 hours and then collected, washed twice in PBS and lysed in RIPA buffer (ThermoFisher Scientific) supplemented with 1× Protease and Phosphatase Inhibitor cocktail (ThermoFisher Scientific). Lysates were kept on ice for 20 minutes with vortexing every 5 minutes, then briefly sonicated and centrifuged at 13500 rpm for 15 minutes. Supernatant was collected and protein content was measured using […]. Cell lysates (30-50 μg protein per well) were resolved by electrophoresis on 4%-20% gradient precast sodium dodecyl sulfate-polyacrylamide gels (Bio-Rad, Hercules, Calif.) and transferred to PVDF membrane (Bio-Rad). […]

MV4-11 FLT3-ITD = experiment: Dynamic BH3 profiling (cytochrome C release); assay type: cell-based; details: 4 hours after treatment with Midostaurin (100 nM)
Method: Cells were subjected to BH3 profiling assay 4 hours after treatment with Midostaurin (100 nM). Increase in cytochrome C release is a quantitative measure of mitochondrial apoptosis initiation.
BH3 profiling was performed in black 384-well plates according to A. Letai method (https://letailab.dana-farber.org/bh3-profiling.html). Briefly, cells ([…]) were seeded in 6-well plates in 5 mL of complete RPMI medium and exposed to Midostaurin and S63845 given alone or in combination. Control cells received DMSO. Cells were incubated for 6 hours, collected, washed twice in PBS and resuspended in MEB buffer (150 mM mannitol, 10 mM HEPES-KOH pH 7.5, 150 mM KCl, 1 mM EGTA, 1 mM EDTA, 0.1% BSA, 5 mM succinate) to a final density 1×10^6/mL. Cells (15 μL) were added to 384-well plate containing containing peptides % BH3 mimetics and 15 μL of 0.002% digitonin in MEB buffer. Cells were incubated for 1 hour in 25° C. and subsequently fixed in 10 μL of 4% formaldehyde in PBS for 10 minutes. To terminate the fixation, 10 μL of N2 buffer (1.7M Tris, 1.25M Glycine pH 9.1) was added and cells were left at room temperature for 5 minutes. […] Cytochrome C release was measured by flow cytometry.

Molm13 = experiment: Caspase-Glo 3/7 caspase3.7 activity, dose matrix, Molm13; assay type: cell-based; details: single agent, Molm13 (FLT3-ITD), 6 hours treatment, highest dose 3 uM
Method: as §1, §2, §3, §4

| Structure (SMILES) | efficacy (solid tumors) | toxicity (solid tumors) | overall survival (AML with FLT3 mutation) | induction of caspase activity, maximum increase (MV-4-11) [%] | level of pro-apoptotic Bim (MV-4-11 cells) | level of Mcl-1 (MV-4-11 cells; MV-4-11 cells) | mitochondrial priming to Mcl-1 inhibitor S63845 and Bim peptide (MV4-11 FLT3-ITD) | induction of caspase activity, maximum increase (Molm13) [%] |
| --- | --- | --- | --- | --- | --- | --- | --- | --- |
| CO[C@]1(O)[C@H](N(C)C(=O)c2ccccc2)C[C@H]2O[C@]1(C)n1c3ccccc3c3c4c(c5c6ccccc6n2c5c31)C(=O)NC4 [Compound A, 4′-N-benzoylstaurosporine] | limited efficacy | low toxicity | increased overall survival | 24 | increased | reduced | increased | 33 |
| COc1ccccc1-c1nccc(COc2ccccc2C[C@@H](Oc2ncnc3sc(-c4ccc(F)cc4)c(-c4ccc(OCCN5CCN(C)CC5)c(Cl)c4C)c23)C(=O)O)n1 [Compound B, (2R)-2-{[(5Sa)-5-{3-chloro-2-methyl-4-[2-(4-methylpiperazin-1-yl)ethoxy]phenyl}-6-(4-fluorophenyl)thieno[2,3-d]pyrimidin-4-yl]oxy}-3-(2-{[2-(2-methoxyphenyl)pyrimidin-4-yl]methoxy}phenyl)propanoic acid] |  |  |  | 89 |  |  |  | 87 |

Reference: patent US20220016118A1, “COMBINATION OF A MCL-1 INHIBITOR AND MIDOSTAURIN, USES AND PHARMACEUTICAL COMPOSITIONS THEREOF” (LES LABORATOIRES SERVIER, priority 2018, published 2022)
